This passage reports melting point, pest or weed control and inhibition of growth results from patent US11358957B2, “Microbiocidal oxadiazole derivatives” (SYNGENTA PARTICIPATIONS AG, priority 2017, dated 2022).

Data set [1] has as its system Puccinia recondita f. Sp. Tritici. As to the kind of experiment: Fungicidal activity against Puccinia recondita f. sp. tritici / wheat / leaf disc preventative (brown rust). The format is in vivo. Conditions: foliar, 200 ppm in the applied formulation, wheat leaf segments cv. Kanzler, preventative (inoculated 1 day after application), compared to untreated, read-out: disease control. The gist of the method: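 Segments of wheat cv. Kanzler on water agar were sprayed with compound and inoculated with spores 1 day later. They were kept at 19 °C, 75% rh and 12 h light/12 h dark. Percent disease control versus untreated was scored 7–9 days after application; compounds were tested at 200 ppm.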

Another data set relates to Phakopsora pachyrhizi. Description: Fungicidal activity against Phakopsora pachyrhizi / soybean / leaf disc preventative (Asian soybean rust). It counts as in vivo. The note with it: foliar, 200 ppm in the applied formulation, soybean leaf disks, compared to untreated, read-out: disease control.
The test system of data set [2] is Glomerella lagenarium (Colletotrichum lagenarium). As to the kind of experiment: Fungicidal activity against Glomerella lagenarium (Colletotrichum lagenarium) liquid culture / cucumber / preventative (anthracnose). The format is cell-based. The note with it: Colletotrichum orbiculare; 20 ppm in the applied formulation; liquid culture (PDB), inhibition of growth measured photometrically 3 to 4 days after application; compared to untreated; read-out: disease control. Put shortly:
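Conidia from cryogenic storage mixed into potato dextrose broth and added to compound in DMSO in microtiter plates. Incubated at 24° C.; growth inhibition read photometrically 3 to 4 days after application. Disease control expressed relative to untreated control, with compound at 20 ppm in the applied formulation.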

The subject of data set [3] is Puccinia recondita f. Sp. Tritici. As to the kind of experiment: Fungicidal activity against Puccinia recondita f. sp. tritici / wheat / leaf disc curative (brown rust). The format is in vivo. The note with it: foliar, 24 h, 200 ppm in the applied formulation, wheat leaf segments cv. Kanzler, curative (applied 1 day after inoculation), compared to untreated, read-out: disease control. Put shortly:
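Wheat leaf segments (cv. Kanzler) on agar were inoculated with brown rust spores, kept dark at 19 °C and 75% RH, then sprayed 1 day later with compound (DMSO stock diluted in 0.025% Tween20). Under 12 h light/12 h dark at 19 °C, percent disease control versus untreated was scored 6–8 days after application; 200 ppm applied.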

`CC(c1ccc(-c2noc(C(F)(F)F)n2)s1)n1cc(C(=O)N2CCC2)cn1` (centres unmarked) [Compound 1.35, azetidin-1-yl-[1-[1-[5-[5-(trifluoromethyl)-1,2,4-oxadiazol-3-yl]-2-thienyl]ethyl]pyrazol-4-yl]methanone] had a melting point of 76 to 78 °C. For the same molecule, the pest or weed control at 200 ppm in data set [1] was at least 80%. For the same molecule, the pest or weed control at 200 ppm in the data set on Phakopsora pachyrhizi was at least 80%. Further, the inhibition of growth at 20 ppm in data set [2] was at least 80%. In data set [3], the pest or weed control at 200 ppm is at least 80%.
For `CNC(=O)c1ccnn1Cc1ccc(-c2noc(C(F)(F)F)n2)s1` [Compound 1.52, N-methyl-2-[[5-[5-(trifluoromethyl)-1,2,4-oxadiazol-3-yl]-2-thienyl]methyl]pyrazole-3-carboxamide], the melting point is 148 to 151 °C. For the same molecule, in data set [1], the pest or weed control at 200 ppm was at least 80%. For the same molecule, in the data set on Phakopsora pachyrhizi, the pest or weed control at 200 ppm is at least 80%. The inhibition of growth at 20 ppm in data set [2] was at least 80%. Further, in data set [3], the pest or weed control at 200 ppm was at least 80%.
For `CCOC(=O)c1ccn(Cc2ccc(-c3noc(C(F)(F)F)n3)s2)n1` [Compound 1.42, ethyl 1-[[5-[5-(trifluoromethyl)-1,2,4-oxadiazol-3-yl]-2-thienyl]methyl]pyrazole-3-carboxylate], the melting point was in the range of 120 to 124 °C. Further, the pest or weed control at 200 ppm in data set [1] is at least 80%. Also, the pest or weed control at 200 ppm with Phakopsora pachyrhizi is at least 80%. For the same molecule, the inhibition of growth at 20 ppm in data set [2] was at least 80%. In data set [3], the pest or weed control at 200 ppm was at least 80%.
Molecule `CONC(=O)c1ncn(Cc2ccc(-c3noc(C(F)(F)F)n3)s2)n1` [Compound 1.59, N-methoxy-1-[[5-[5-(trifluoromethyl)-1,2,4-oxadiazol-3-yl]-2-thienyl]methyl]-1,2,4-triazole-3-carboxamide] showed a melting point of 168 to 178 °C. The pest or weed control at 200 ppm in data set [1] is at least 80%. Moreover, in the data set on Phakopsora pachyrhizi, the pest or weed control at 200 ppm was at least 80%. The inhibition of growth at 20 ppm in data set [2] is at least 80%. The pest or weed control at 200 ppm in data set [3] is at least 80%.
The molecule `CNC(=O)c1ncnn1Cc1ccc(-c2noc(C(F)(F)F)n2)s1` [Compound 1.48, N-methyl-2-[[5-[5-(trifluoromethyl)-1,2,4-oxadiazol-3-yl]-2-thienyl]methyl]-1,2,4-triazole-3-carboxamide] showed a melting point of 132 to 140 °C. The pest or weed control at 200 ppm in data set [1] is at least 80%. Moreover, in the data set with Phakopsora pachyrhizi, the pest or weed control at 200 ppm was at least 80%. Further, in data set [2], the inhibition of growth at 20 ppm is at least 80%. Further, the pest or weed control at 200 ppm in data set [3] was at least 80%.
The molecule `CCOC(=O)c1ncn(Cc2ccc(-c3noc(C(F)(F)F)n3)s2)n1` [Compound 1.40, ethyl 1-[[5-[5-(trifluoromethyl)-1,2,4-oxadiazol-3-yl]-2-thienyl]methyl]-1,2,4-triazole-3-carboxylate] returned a melting point of 136 to 140 °C. For the same molecule, the pest or weed control at 200 ppm in data set [1] is at least 80%. Besides, the pest or weed control at 200 ppm in the data set with Phakopsora pachyrhizi was at least 80%. In addition, the inhibition of growth at 20 ppm in data set [2] is at least 80%. In addition, in data set [3], the pest or weed control at 200 ppm is at least 80%.
`CNC(=O)c1ncn(Cc2ccc(-c3noc(C(F)(F)F)n3)s2)n1` [Compound 1.49, N-methyl-1-[[5-[5-(trifluoromethyl)-1,2,4-oxadiazol-3-yl]-2-thienyl]methyl]-1,2,4-triazole-3-carboxamide]: the melting point lay within 198 to 218 °C. Also, in data set [1], the pest or weed control at 200 ppm is at least 80%. Besides, the pest or weed control at 200 ppm in the data set with Phakopsora pachyrhizi was at least 80%. In addition, in data set [2], the inhibition of growth at 20 ppm is at least 80%. Also, the pest or weed control at 200 ppm in data set [3] was at least 80%.

Usually melting point stands for the temperature of the solid-liquid transition.
